Data: patent publication US20030091533A1, “Regulation of mononuclear phagocyte stimulation” (priority 2001, published 2003)
Marks after values point to notes of the source that are not given here.

Legend:
Assay type in all cases: cell-based, human
TLR4 = TLR4 surface expression on PBM by FACS; conditions: for TLR4 expression (MFI): PBM preincubated 24 hour, 20 ng/ml IL-9 or IL-4, 200 U/ml IFN-γ, means±SD, medium 73 ± 2; for TLR4 expression on the surface of PBM compared with medium alone: preincubated for 24 hour
Protocol: (§1) Table 2. Cells (0.2×10^6) were preincubated for 24 hour with cytokines (20 ng/ml for IL-9 or IL-4 and 200 U/ml for IFN-γ), before the assessment of LPS receptor expression by immunostaining using anti-human CD14 mAb conjugated to FITC and anti-human TLR4 rabbit Ab followed by mouse anti-rabbit IgG (MAR-FITC). Cell-associated fluorescence was evaluated by FACS and expressed as mean fluorescence intensity (MFI). Autofluorescence of PBM was negligible (MFI: 3±1). Data are means±SD (n=3), and are representative of two experiments. *P<0.05 compared with cells preincubated with medium.
(§2) Additional stainings for CD14 and Toll-like receptor (TLR)-4 were performed on PBM preincubated for 24 hour with cytokines, using respectively FITC-conjugated anti-CD14 mAb (clone MøP9, mIgG2b, Becton Dickinson) and anti-TLR4 rabbit Ab (Santa Cruz, Calif.) followed by F (ab′)2 fragments of mouse anti-rabbit IgG (MAR)-FITC.

PMA-stimulated PBM = experiment: Extracellular O2- release, SOD-inhibitable reduction of ferricytochrome c; conditions: for effect on the basal oxidative burst: incubation for 24 hour, PBM without stimulation
Protocol: Extracellular release of O2-derived radicals was evaluated by the SOD-inhibitable reduction of ferricytochrome c, as previously described (Pick, Methods in Enzymology, 132:407-421 (1986)) as described infra.
Extracellular release of O2-derived radicals was evaluated by the SOD-inhibitable reduction of ferricytochrome c, as previously described (Pick, Methods in Enzymology, 132:407-421 (1986)). Briefly, after incubation with IL-9 and IL-4 (20 ng/ml) for 1 hour, 4 hour 24 hour and 96 hour, cells were washed three times in Hank's balanced salt solution without phenol red (HBSS) to remove the phenol red-containing medium and incubated at 37° C. with HBSS containing 160 μM ferricytochrome c (plus 300 IU/ml SOD as control for each condition), and concomittantly with 100 ng/ml PMA when indicated. Optical density (OD) at 550 nm was then recorded in a plate spectrometer (Titertek Multiscan Plus MKII, Labsystems, Finland) after 60 min. The released amount of superoxide anion (O2^−) was deduced from the absorbance values at 550 nm (after subtraction of control values with SOD) using the cytochrome c extinction coefficient of 21×10^3 M^−1 cm^−1 (See Massey, Biochim Biophys Acta, 34: 255(1959)). Results were expressed as nmoles O2^− per 10^6 cells per hour (FIG. 1).

CD14 = CD14 surface expression on PBM by FACS; conditions: for CD14 expression (MFI): PBM preincubated 24 hour, 20 ng/ml IL-9 or IL-4, 200 U/ml IFN-γ, means±SD, medium 107 ± 4; for CD14 expression on the surface of PBM compared with medium alone: preincubated for 24 hour
Protocol: as §1, §2

LPS-stimulated PBM = experiment: TNF-α release, cytotoxic bioassay with WEHI 164 clone 13 cells, PBM; conditions: preincubated 24 hour with cytokine (IL-9, IL-4 20 ng/ml, IFN-γ 200 U/ml) or medium, LPS 1 μg/ml 20 h; without LPS 10.2±4.1
Protocol: (§3) PBM and AM obtained as described infra (1×10^6 PBM, 0.5×10^6 AM) were preincubated for 24 hour with cytokines, IL-4, IL-9 (20 ng/ml) and IFN-γ (200 U/ml) before the stimulation by LPS (1 μg/ml) for 20 h. Supernatants were harvested and frozen at −20° C. until cytokine titration. TNF-α release was determined in supernatants by a cytotoxic bioassay using WEHI 164 clone 13 target cells (Espevik and Nissen-Meyer, J. Immunol. Methods, 95:99-105 (1986) (incorporated herein by reference)), while IL-8 was quantitated in the same supernatants by ELISA. FIG. 5 depicts the effects of IL-9, IL-4, and IFN-γ on the release of TNFα (A) and IL-8 (B) by LPS-stimulated PBM and AM. Data are means±SEM (n=3). *P<0.001 compared with unstimulated cells; **P<0.05 compared with cells preincubated with medium.
(§4) Cells (1×10^6 PBM or 0.5×10^6 AM/well) were distributed in 24-well plates (Falcon), preincubated in cRPMI for 24 hours at 37° C., 5% CO2 with cytokines (IL-9, IL-4 (20 ng/ml) and IFN-γ (200 U/ml)) and stimulated for 20 hours with 1 μg/ml LPS without removing cytokines. Supernatants were harvested and frozen at −20° C. until cytokine titration. Release of TNF-α was quantified by a cytotoxicity bioassay using WEHI 164 cells clone 13, as previously described (Espevik and Nissen-Meyer, J. Immunol. Methods, 95:99-105 (1986) incorporated herein by reference), using rhTNF-α from Boehringer as a standard. IL-8, IL-10 and TGF-β1 concentrations were determined by ELISA. A kit from CLB (Amsterdam, The Netherlands) was used for IL-10 quantitation, following the manufacturer's protocol. A kit from Biosource allowed to determine TGF-β1 after the release from its latent complexes by a treatment of supernatants with ethanol acid (‘acid-treated supernatants’); TGF-P 1 was also assessed in crude supernatants (‘untreated supernatants’). […] The reaction was then developed in 0.03% v/v H2O2 substrate and 0.42 mM 3,3′,5,5′-tetramethylbenzidine as chromogen in 100 mM sodium acetate/citric acid buffer (pH 4.9), stopped with 2 M H2SO4, and read in a plate spectrometer at 450 nm. […]

LPS-stimulated AM = experiment: TNF-α release, cytotoxic bioassay with WEHI 164 clone 13 cells, AM; conditions: for TNF-α release by LPS-stimulated AM: preincubated 24 hour with cytokine (IL-9, IL-4 20 ng/ml, IFN-γ 200 U/ml) or medium, LPS 1 μg/ml 20 h, without LPS 4.6±2.1
Protocol: as §3, §4

IL-4: Th2 cytokine interleukin-4 used as comparator, 20 ng/ml
TLR4 expression (MFI) (TLR4): 58 ± 1* MFI | TLR4 expression on the surface of PBM compared with medium alone (TLR4): down regulated | effect on O2^− release by PMA-stimulated PBM (PMA-stimulated PBM; 24 hour of preincubation): same inhibitory effect | effect on O2^− release by PMA-stimulated PBM (PMA-stimulated PBM; 96 hour of preincubation): significantly increased | effect on the basal oxidative burst (PMA-stimulated PBM): little effect | CD14 expression (MFI) (CD14): 57 ± 3* MFI | CD14 expression on the surface of PBM compared with medium alone (CD14): down regulated | TNF-α release by LPS-stimulated PBM (LPS-stimulated PBM): 72.5 ± 21.5 pg/mL | effect on TNF-α production in LPS-stimulated AM (LPS-stimulated AM; preincubated 24 hour, LPS 20 h): No significant inhibition

IL-9: Human IL-9 purified from SF9 insect cell cultures infected with recombinant baculovirus
TLR4 expression (MFI) (TLR4): 71 ± 4 MFI | TLR4 expression on the surface of PBM compared with medium alone (TLR4): not significantly different | effect on O2^− release by PMA-stimulated PBM (PMA-stimulated PBM; 96 hour of preincubation): not further increased | effect on the basal oxidative burst (PMA-stimulated PBM): little effect | O2^− release by PMA-stimulated PBM (PMA-stimulated PBM; preincubation 24 hour, 20 ng/ml, PMA 100 ng/ml, medium-preincubated cells 40.1±2.5): 23.2±0.8 nmoles 02-per 10^6 cells. h^−1 | effect on O2^− release by PMA-stimulated PBM (PMA-stimulated PBM; shorter preincubation periods (1 hour, 4 hour)): not significant | CD14 expression (MFI) (CD14): 108 ± 5 MFI | effect on the up regulation of CD14 on PBM incubated with IFN-γ (CD14; co-incubation with IFN-γ): inhibited | CD14 expression on the surface of PBM compared with medium alone (CD14): not significantly different | TNF-α release by LPS-stimulated PBM (LPS-stimulated PBM): 84.2 ± 17.2 pg/mL | TNF-α release by LPS-stimulated AM (LPS-stimulated AM): 74.8 ± 10.2 pg/mL

B1: IFN-γ: Interferon gamma, primes mononuclear phagocytes, 200 U/ml (protein, UniProt P01579 24-161, looked up)
Interferon gamma: QDPYVKEAENLKKYFNAGHSDVADNGTLFLGILKNWKEESDRKIMQSQIVSFYFKLFKNFKDDQSIQKSVETIKEDMNVKFFNSNKKKRDDFEKLTNYSVTDLNVQRKAIHELIQVMAELSPAAKTGKRKRSQMLFRG
TLR4 expression (MFI) (TLR4): 82 ± 2* MFI | TLR4 expression on the surface of PBM compared with medium alone (TLR4): increased | effect on O2^− release by PMA-stimulated PBM (PMA-stimulated PBM; 24 hour of preincubation): slightly up regulated | CD14 expression (MFI) (CD14): 121 ± 6* MFI | CD14 expression on the surface of PBM compared with medium alone (CD14): increased | TNF-α release by LPS-stimulated PBM (LPS-stimulated PBM): 289.8 ± 12.9 pg/mL | TNF-α release by LPS-stimulated AM (LPS-stimulated AM): 145.2 ± 9.4 pg/mL
